Results as given in patent publication US20250230193A1, “CYCLIC COMPOUND HAVING SELECTIVE KRAS INHIBITORY EFFECT ON HRAS AND NRAS” (CHUGAI SEIYAKU KABUSHIKI KAISHA, priority 2022, published 2025).
Where a SMILES comes first, the peptide text is derived from it. Bridges are numbered along the chain shown (N, C = ends). [ ]: non-standard residue; d: D form. The star is where a group is joined. hPhe(3-Cl-4-CF3) = N[C@@H](CCc1ccc(C(F)(F)F)c(Cl)c1)C(=O)O; NEtPhe(4-Me) = CCN[C@@H](Cc1ccc(C)cc1)C(=O)O; NMeAbu(4,4,4-F3) = CN[C@@H](CC(F)(F)F)C(=O)O; NMeGly(cPent) = CN[C@H](C(=O)O)C1CCCC1; NMeD = CN[C@@H](CC(=O)O)C(=O)O; Morpholide = C1CN(*)CCO1; Ac5c = NC1(C(=O)O)CCCC1; Sar = CNCC(=O)O

Experiments:
[1] = target: GDP-bound NRAS wild-type protein (Homo sapiens, UniProt P01111); experiment: Binding to NRAS by surface plasmon resonance (SPR), Single Cycle Kinetics; details: SPR; for NRAS/KRAS (ratio of KD value with respect to NRAS to KD value with respect to KRAS) / NRAS/KRAS (ratio of KD value for NRAS to KD value for KRAS): GDP-bound NRAS wild-type vs GDP-bound KRAS wild-type
[2] = target: GDP-bound HRAS wild-type protein (Homo sapiens, UniProt P01112); experiment: Binding to HRAS by surface plasmon resonance (SPR), Single Cycle Kinetics; details: SPR; for HRAS/KRAS (ratio of KD value with respect to HRAS to KD value with respect to KRAS) / HRAS/KRAS (ratio of KD value for HRAS to KD value for KRAS): GDP-bound HRAS wild-type vs GDP-bound KRAS wild-type
GDP-bound HRAS wild-type protein, sequence (P01112 whole entry): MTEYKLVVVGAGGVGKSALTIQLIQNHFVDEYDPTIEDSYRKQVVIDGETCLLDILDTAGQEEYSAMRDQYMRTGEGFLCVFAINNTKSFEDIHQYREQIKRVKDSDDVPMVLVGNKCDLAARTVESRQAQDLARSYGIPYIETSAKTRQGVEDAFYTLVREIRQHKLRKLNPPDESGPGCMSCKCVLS

GDP-bound NRAS wild-type protein, sequence (P01111 whole entry): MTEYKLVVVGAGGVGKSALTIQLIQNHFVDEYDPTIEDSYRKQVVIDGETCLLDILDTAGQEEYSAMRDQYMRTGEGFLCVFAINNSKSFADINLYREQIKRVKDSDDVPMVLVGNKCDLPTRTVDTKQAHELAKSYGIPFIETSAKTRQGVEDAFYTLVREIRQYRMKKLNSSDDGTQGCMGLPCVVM

In the case of `CCO[C@@H]1C[C@H]2C(=O)NC3(CCC3)C(=O)N(C)[C@@H](C3CCCC3)C(=O)N(C)[C@H](C(=O)N(C)C)CC(=O)N(C)[C@@H](CC)C(=O)N[C@@H]([C@@H](C)CC)C(=O)N(C)CC(=O)N(C)[C@H]3CC(C)=CCN(C3=O)[C@@H](Cc3ccc(C(F)(F)F)cc3)C(=O)N(C)CC(=O)N[C@@H](CCc3cc(F)c(C(F)(F)F)c(F)c3)C(=O)N2C1` [PP1034], the “NRAS/KRAS (ratio of KD value with respect to NRAS to KD value with respect to KRAS)” value ([1]; KD ratio) is reported as “C (A compound having a KD ratio of 0.1 or more and less than 3 is denoted as C)” and the “HRAS/KRAS (ratio of KD value with respect to HRAS to KD value with respect to KRAS)” value ([2]; KD ratio) is reported as “C (A compound having a KD ratio of 0.1 or more and less than 3 is denoted as C)”.
`CC[C@H](C)[C@@H]1NC(=O)[C@H](CC2CC2)N(C)C(=O)C[C@@H](C(=O)N(C)C)N(C)C(=O)[C@H](C2CCCC2)N(C)C(=O)C2(CCC2)NC(=O)[C@@H]2C[C@H](C)CN2C(=O)[C@H](CCc2ccc(C(F)(F)F)c(OC)c2)NC(=O)CN(C)C(=O)[C@H](Cc2ccc(C)cc2)N2CC/C=C\C[C@@H](C2=O)N(C)C(=O)CN(C)C1=O` [PP1861] was tested, and the “NRAS/KRAS (ratio of KD value for NRAS to KD value for KRAS)” value ([1]; KD ratio) was “A (a compound having 10 or more and less than 20 is denoted as A)” and the “HRAS/KRAS (ratio of KD value for HRAS to KD value for KRAS)” value ([2]; KD ratio) was “B (a compound having 3 or more and less than 10 is denoted as B)”.
`CC[C@H](C)[C@@H]1NC(=O)[C@H](CC(F)(F)F)N(C)C(=O)C[C@@H](C(=O)N2CCOCC2)N(C)C(=O)[C@H](C2CCCC2)N(C)C(=O)C2(CCCC2)NC(=O)[C@@H]2CCCN2C(=O)[C@H](CCc2ccc(C(F)(F)F)c(Cl)c2)NC(=O)CN(C)C(=O)[C@H](Cc2ccc(C)cc2)N(CC)C(=O)CN(C)C(=O)CN(C)C1=O` [PP0032] ([NMeAbu(4,4,4-F3)]I[Sar][Sar][NEtPhe(4-Me)][Sar][hPhe(3-Cl-4-CF3)]P[Ac5c][NMeGly(cPent)][NMeD]-Morpholide; lactam N-11) was tested, and the “NRAS/KRAS (ratio of KD for GDP-bound NRAS wild-type to KD for KRAS)” value ([1]; KD ratio NRAS/KRAS) was “C (A compound having a KD ratio of 0.1 or more and less than 3 is denoted as C)” and the “HRAS/KRAS (ratio of KD for GDP-bound HRAS wild-type to KD for KRAS)” value ([2]; KD ratio HRAS/KRAS) was “C (A compound having a KD ratio of 0.1 or more and less than 3 is denoted as C)”.
For `CCO[C@@H]1C[C@H]2C(=O)NC3(CCC3)C(=O)N(C)[C@@H](C3CCCC3)C(=O)N(C)[C@H](C(=O)N3CCOCC3)CC(=O)N(C)[C@@H](CC(C)C)C(=O)N[C@@H]([C@H](C)CC)C(=O)N(C)CC(=O)N(C)[C@H]3CCCCN(C3=O)[C@@H](Cc3ccc(C(F)(F)F)cc3)C(=O)N(C)CC(=O)N[C@@H](CCc3cc(F)c(C(F)(F)F)c(F)c3)C(=O)N2C1` [PP0806], the “NRAS/KRAS (ratio of KD value with respect to GDP-bound NRAS wild-type protein to KD value with respect to KRAS)” value ([1]; KD ratio NRAS/KRAS) was “B (a compound having 3 or more and less than 10 is denoted as B)” and the “HRAS/KRAS (ratio of KD value with respect to GDP-bound HRAS wild-type protein to KD value with respect to KRAS)” value ([2]; KD ratio HRAS/KRAS) was “B (a compound having 3 or more and less than 10 is denoted as B)”.
In the case of `CCO[C@@H]1C[C@H]2C(=O)NC3(CCC3)C(=O)N(C)[C@@H](C3CCCC3)C(=O)N(C)[C@H](C(=O)N(C)C)CC(=O)N(C)[C@@H](CC)C(=O)N[C@@H]([C@@H](C)CC)C(=O)N(C)CC(=O)N(C)[C@H]3CCCCCN(C3=O)[C@@H](Cc3ccc(F)cc3C)C(=O)N(C)CC(=O)N[C@@H](CCc3cc(F)c(C(F)(F)F)c(F)c3)C(=O)N2C1` [PP0911], the “NRAS/KRAS (ratio of KD value with respect to NRAS to KD value with respect to KRAS)” value ([1]; KD ratio) is reported as “B (a compound having 3 or more and less than 10 is denoted as B)” and the “HRAS/KRAS (ratio of KD value with respect to HRAS to KD value with respect to KRAS)” value ([2]; KD ratio) is reported as “B (a compound having 3 or more and less than 10 is denoted as B)”.
With `CC[C@H](C)[C@@H]1NC(=O)[C@H](CC(F)F)N(C)C(=O)C[C@@H](C(=O)N(C)CC)N(C)C(=O)[C@H](C2CCCC2)N(C)C(=O)C2(CC(C)(C)C2)NC(=O)[C@@H]2C[C@@H](C)CN2C(=O)[C@H](CCc2ccc(C(F)(F)F)c(Cl)c2)NC(=O)CN(C)C(=O)[C@H](Cc2ccc(C)cc2)N2CC/C=C\C[C@@H](C2=O)N(C)C(=O)CN(C)C1=O` [PP1837] the “NRAS/KRAS (ratio of KD value for NRAS to KD value for KRAS)” value ([1]; KD ratio) was “A (a compound having 10 or more and less than 20 is denoted as A)” and the “HRAS/KRAS (ratio of KD value for HRAS to KD value for KRAS)” value ([2]; KD ratio) was “A (a compound having 10 or more and less than 20 is denoted as A)”.
For `CCCOC[C@H]1C(=O)N[C@@H]([C@@H](C)OCC)C(=O)N(C)CC(=O)N(C)[C@H]2C/C=C\CCN(C2=O)[C@@H](Cc2ccc(C)cc2)C(=O)N(C)CC(=O)N[C@@H](CCc2ccc(C(F)(F)F)c(OC)c2)C(=O)N2C[C@@H](C)C[C@H]2C(=O)NC2(CC(C)(C)C2)C(=O)N(C)[C@@H](C2CCCC2)C(=O)N(C)[C@H](C(=O)N(C)CC)CC(=O)N1C` [PP2423], the “NRAS/KRAS (ratio of KD value with respect to NRAS to KD value with respect to KRAS)” value [1] was “A (a compound having 10 or more and less than 20 is denoted as A)” and the “HRAS/KRAS (ratio of KD value with respect to HRAS to KD value with respect to KRAS)” value [2] was “A (a compound having 10 or more and less than 20 is denoted as A)”.
